Assay results: paper PMC6813295, “A tumour-selective cascade activatable self-detained system for drug delivery and cancer imaging” (Nature Communications, 2019)

System: H460 tumour-bearing nude mice
Test: In vivo antitumor efficacy and safety of treatment
Design: species or system mouse
Conditions: five times, n = 5
Description: Data are presented as mean ± s.d.
(1 picture or pasted object on this page, not shown here)

COc1cccc2c1C(=O)c1c(O)c3c(c(O)c1C2=O)C[C@@](O)(C(=O)CO)C[C@@H]3O[C@H]1C[C@H](N)[C@H](O)[C@H](C)O1 [DOX, doxorubicin]
mean tumour volume after 14 days (i.v. DOX dose 2.0 mg/kg, once every other day): 854 mm^3
median survival time (i.v. identical DOX dose 2.0 mg/kg, Kaplan–Meier): 12 days
